According to patent US8598128B2, “Fructosylated puerarin, and preparation method and use thereof” (priority 2010, dated 2013):
Entries after “also recorded” stand apart in the source; their conditions may differ.

Test system: myocardio ischemia mice
Experiment: Heart rate in pituitrin acute myocardial ischemia model
Type: in vivo, Sprague-Dawley mice (SD mice)
Description: Embodiment 6: […] Pituitrin injection was purchased from Nanjing Xinbai Pharmaceutical Co., Ltd., normal saline injection from Nanjing Xiaoying Pharmaceutical Co., Ltd., and DMSO, PG, and anhydrous ethanol were of chromatographic class. […] The data were presented with, and tested with t. P<0.05 indicates substantial difference, P<0.01 indicates very substantial difference; and P<0.001 indicates extremely substantial difference.

Work on `O=c1c(-c2ccc(O)cc2)coc2c([C@@H]3O[C@H](CO[C@]4(CO)O[C@H](CO)[C@@H](O)[C@@H]4O)[C@@H](O)[C@H](O)[C@H]3O)c(O)ccc12` [monofructosyl-β(2,6)-puerarin] yielded a Heart rate (12.5 mg/kg, 5 s) of 433 ± 63 time · min^−1, a Heart rate (12.5 mg/kg, 10 s) of 416 ± 79 time · min^−1 and a Heart rate (12.5 mg/kg, 15 s) of 411 ± 75 time · min^−1. For the same compound, the Heart rate (12.5 mg/kg, 30 s) was 389 ± 72 time · min^−1, the Heart rate (12.5 mg/kg, 1 min) was 347 ± 71 time · min^−1 and the Heart rate (12.5 mg/kg, 2 min) was 339 ± 57 time · min^−1. It also gave a Heart rate (12.5 mg/kg, 5 min) of 349 ± 50 time · min^−1, a Heart rate (12.5 mg/kg, 10 min) of 395 ± 45 time · min^−1 and a Heart rate (12.5 mg/kg, Normal) of 403 ± 54 time · min^−1. The Heart rate (25 mg/kg, 5 s) was 476 ± 65 time · min^−1, the Heart rate (25 mg/kg, 10 s) was 442 ± 81 time · min^−1 and the Heart rate (25 mg/kg, 15 s) was 405 ± 88 time · min^−1. For the same compound, the Heart rate (25 mg/kg, 30 s) was 428 ± 65 time · min^−1, the Heart rate (25 mg/kg, 1 min) was 403 ± 54 time · min^−1 and the Heart rate (25 mg/kg, 2 min) was 386 ± 41 time · min^−1. It also gave a Heart rate (25 mg/kg, 5 min) of 375 ± 37 time · min^−1, a Heart rate (25 mg/kg, 10 min) of 420 ± 43 time · min^−1 and a Heart rate (25 mg/kg, Normal) of 474 ± 68 time · min^−1. The Heart rate (50 mg/kg, 5 s) was 485 ± 95 time · min^−1, the Heart rate (50 mg/kg, 10 s) was 423 ± 84 time · min^−1 and the Heart rate (50 mg/kg, 15 s) was 420 ± 76 time · min^−1. It also gave a Heart rate (50 mg/kg, 30 s) of 378 ± 34 time · min^−1, a Heart rate (50 mg/kg, 1 min) of 327 ± 89 time · min^−1 and a Heart rate (50 mg/kg, 2 min) of 339 ± 45 time · min^−1. For the same compound, the Heart rate (50 mg/kg, 5 min) was 347 ± 55 time · min^−1, the Heart rate (50 mg/kg, 10 min) was 435 ± 72 time · min^−1 and the Heart rate (50 mg/kg, Normal) was 483 ± 91 time · min^−1. The “effect on heart rate restoration in words” value (12.5, 25 and 50 mg/kg) was “has certain therapy effect on the heart disorder caused by myocardial ischemia; also recorded: has certain therapy effect on the heart disorder caused by myocardio ischemia”.
